Source: ChEMBL document CHEMBL2176918, “Design and optimization of pyrazinecarboxamide-based inhibitors of diacylglycerol acyltransferase 1 (DGAT1) leading to a clinical candidate dimethylpyrazinecarboxamide phenylcyclohexylacetic acid (AZD7687)” (J Med Chem, 2012)

Legend:
[1] = tested on: Rattus norvegicus; test: Inhibition of adipose triacylglycerol synthesis in 14 hrs fasted Han-Wistar rat assessed as decrease in ratio of [3H]palmitic acid incorporation in to TAG and DAG at 8 mg/kg administered orally and measured 1.5 hrs post dose relative to control
[2] = Intrinsic clearance in rat hepatocytes assessed as parent compound disappearance at 1 uM per 10^6 cells; format: ADME, cell-based, Hepatocyte; settings: read-out: CLH
[3] = target: T1, Cytochrome P450 1A2 (Homo sapiens, UniProt P05177); test: Inhibition of CYP1A2; format: ADME
T1 sequence (P05177 whole entry): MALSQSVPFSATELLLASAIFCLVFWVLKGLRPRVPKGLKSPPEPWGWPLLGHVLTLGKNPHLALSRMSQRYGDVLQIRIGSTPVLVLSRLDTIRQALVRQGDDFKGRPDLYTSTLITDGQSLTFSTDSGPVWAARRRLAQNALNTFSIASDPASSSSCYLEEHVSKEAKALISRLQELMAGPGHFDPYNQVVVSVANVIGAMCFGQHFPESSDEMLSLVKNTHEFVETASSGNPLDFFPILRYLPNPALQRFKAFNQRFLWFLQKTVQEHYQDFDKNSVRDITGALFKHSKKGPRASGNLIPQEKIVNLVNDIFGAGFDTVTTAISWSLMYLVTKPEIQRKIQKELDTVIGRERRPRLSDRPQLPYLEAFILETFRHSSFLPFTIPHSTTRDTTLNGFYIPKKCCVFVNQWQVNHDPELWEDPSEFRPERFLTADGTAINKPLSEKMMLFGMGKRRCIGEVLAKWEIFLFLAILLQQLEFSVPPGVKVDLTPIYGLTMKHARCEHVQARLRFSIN

[4] = target: T2, O-acyltransferase (Canis lupus familiaris, UniProt A0A8I3N393); test: Inhibition of DGAT1 in dog liver microsomes; design: species or system Microsome
T2 sequence (A0A8I3N393 whole entry): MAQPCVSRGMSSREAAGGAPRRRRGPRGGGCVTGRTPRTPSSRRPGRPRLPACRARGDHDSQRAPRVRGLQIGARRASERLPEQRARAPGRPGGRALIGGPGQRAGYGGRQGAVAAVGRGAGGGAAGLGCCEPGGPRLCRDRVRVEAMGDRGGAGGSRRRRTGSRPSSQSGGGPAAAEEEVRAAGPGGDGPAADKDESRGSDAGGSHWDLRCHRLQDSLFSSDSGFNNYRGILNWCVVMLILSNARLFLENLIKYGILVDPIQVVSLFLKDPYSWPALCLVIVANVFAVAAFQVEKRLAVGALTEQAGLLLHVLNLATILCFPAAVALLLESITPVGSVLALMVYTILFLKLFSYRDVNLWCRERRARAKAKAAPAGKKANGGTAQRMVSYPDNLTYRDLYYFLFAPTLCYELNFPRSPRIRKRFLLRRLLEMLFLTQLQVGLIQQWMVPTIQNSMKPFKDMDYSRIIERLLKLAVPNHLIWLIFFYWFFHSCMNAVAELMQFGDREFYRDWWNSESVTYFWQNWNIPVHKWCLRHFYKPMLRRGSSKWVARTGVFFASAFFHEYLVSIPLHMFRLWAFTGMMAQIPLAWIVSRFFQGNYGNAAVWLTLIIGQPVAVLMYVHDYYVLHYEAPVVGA

[5] = Fraction unbound in human plasma at 37 degC by LC-UV/MS method based equilibrium dialysis method
[6] = Intrinsic clearance in human hepatocytes assessed as parent compound disappearance at 1 uM per 10^6 cells; format: ADME, cell-based, Hepatocyte; settings: read-out: CLH
[7] = Intrinsic clearance in dog hepatocytes assessed as parent compound disappearance at 1 uM per 10^6 cells; format: ADME, cell-based, Canis lupus familiaris, Hepatocyte; settings: read-out: CLH
[8] = target: Cytochrome P450 2C19 (Homo sapiens, UniProt P33261); test: Inhibition of CYP2C19; format: ADME
Sequence of Cytochrome P450 2C19 (P33261 whole entry): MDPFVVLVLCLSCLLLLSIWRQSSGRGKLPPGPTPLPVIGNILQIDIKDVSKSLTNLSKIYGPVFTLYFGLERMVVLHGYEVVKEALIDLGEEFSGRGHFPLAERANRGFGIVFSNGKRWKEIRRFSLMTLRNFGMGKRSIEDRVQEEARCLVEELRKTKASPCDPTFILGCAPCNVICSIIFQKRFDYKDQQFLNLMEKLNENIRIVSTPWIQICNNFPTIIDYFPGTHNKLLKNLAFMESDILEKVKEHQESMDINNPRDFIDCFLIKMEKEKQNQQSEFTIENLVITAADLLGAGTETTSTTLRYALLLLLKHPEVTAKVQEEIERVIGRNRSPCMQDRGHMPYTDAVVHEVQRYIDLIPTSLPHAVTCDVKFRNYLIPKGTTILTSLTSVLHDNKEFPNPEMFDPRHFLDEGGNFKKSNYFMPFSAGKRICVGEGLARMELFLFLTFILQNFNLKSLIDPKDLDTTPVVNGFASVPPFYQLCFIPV

[9] = target: T3, Diacylglycerol O-acyltransferase 1 (Rattus norvegicus, UniProt Q9ERM3); test: Inhibition of DGAT1 in rat liver microsomes; design: species or system Microsome
T3 sequence (Q9ERM3 whole entry): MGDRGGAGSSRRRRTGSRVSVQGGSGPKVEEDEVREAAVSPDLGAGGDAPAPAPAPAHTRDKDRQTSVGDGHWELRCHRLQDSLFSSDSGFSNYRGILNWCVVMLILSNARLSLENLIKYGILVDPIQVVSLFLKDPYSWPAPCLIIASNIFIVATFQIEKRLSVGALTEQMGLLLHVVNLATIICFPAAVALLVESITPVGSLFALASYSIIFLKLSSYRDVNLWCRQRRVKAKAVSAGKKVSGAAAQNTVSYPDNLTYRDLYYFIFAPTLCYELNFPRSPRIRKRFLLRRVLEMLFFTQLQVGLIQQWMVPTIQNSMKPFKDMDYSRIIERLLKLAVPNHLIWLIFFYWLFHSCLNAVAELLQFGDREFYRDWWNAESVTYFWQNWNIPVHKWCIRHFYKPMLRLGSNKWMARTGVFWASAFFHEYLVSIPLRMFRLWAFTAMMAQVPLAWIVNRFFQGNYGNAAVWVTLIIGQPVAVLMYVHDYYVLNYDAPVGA

[10] = target: T3, Diacylglycerol O-acyltransferase 1; test: Inhibition of DGAT1 in rat adipose tissue assessed as reduction in triacylglycerol synthesis; format: tissue-based
[11] = target: cAMP and cAMP-inhibited cGMP 3',5'-cyclic phosphodiesterase 10A (Homo sapiens, UniProt Q9Y233); test: Inhibition of PDE10A1 […]
Sequence of cAMP and cAMP-inhibited cGMP 3',5'-cyclic phosphodiesterase 10A (Q9Y233 whole entry): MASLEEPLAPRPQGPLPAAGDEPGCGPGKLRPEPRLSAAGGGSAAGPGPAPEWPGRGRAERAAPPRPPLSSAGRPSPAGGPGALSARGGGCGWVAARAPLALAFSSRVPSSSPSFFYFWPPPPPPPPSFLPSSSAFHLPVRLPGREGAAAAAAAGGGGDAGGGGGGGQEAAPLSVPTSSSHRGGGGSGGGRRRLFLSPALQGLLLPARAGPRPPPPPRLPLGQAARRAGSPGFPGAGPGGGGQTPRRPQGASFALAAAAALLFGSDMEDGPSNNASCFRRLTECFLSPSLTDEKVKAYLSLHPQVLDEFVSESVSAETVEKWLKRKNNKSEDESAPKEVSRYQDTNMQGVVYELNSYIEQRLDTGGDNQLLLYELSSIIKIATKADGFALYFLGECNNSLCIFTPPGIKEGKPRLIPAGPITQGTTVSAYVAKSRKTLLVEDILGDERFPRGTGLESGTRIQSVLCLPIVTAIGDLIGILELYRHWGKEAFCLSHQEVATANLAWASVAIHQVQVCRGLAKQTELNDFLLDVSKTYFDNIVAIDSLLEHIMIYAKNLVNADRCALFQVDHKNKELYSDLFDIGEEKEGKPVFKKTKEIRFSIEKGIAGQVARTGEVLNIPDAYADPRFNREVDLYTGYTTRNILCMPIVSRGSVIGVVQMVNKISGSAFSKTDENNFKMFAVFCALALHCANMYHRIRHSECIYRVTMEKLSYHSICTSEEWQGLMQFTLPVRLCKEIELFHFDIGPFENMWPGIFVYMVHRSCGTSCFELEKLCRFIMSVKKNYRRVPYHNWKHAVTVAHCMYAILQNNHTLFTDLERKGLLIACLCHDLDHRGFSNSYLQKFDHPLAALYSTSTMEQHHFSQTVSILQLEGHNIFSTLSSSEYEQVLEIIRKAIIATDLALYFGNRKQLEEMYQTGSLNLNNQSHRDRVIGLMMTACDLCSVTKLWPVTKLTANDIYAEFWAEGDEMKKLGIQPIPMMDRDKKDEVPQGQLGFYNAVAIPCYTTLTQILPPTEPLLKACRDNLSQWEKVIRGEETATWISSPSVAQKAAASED

[12] = target: T4, Diacylglycerol O-acyltransferase 2 (Homo sapiens, UniProt Q96PD7); test: Inhibition of human DGAT2 by liquid scintillography
T4 sequence (Q96PD7 whole entry): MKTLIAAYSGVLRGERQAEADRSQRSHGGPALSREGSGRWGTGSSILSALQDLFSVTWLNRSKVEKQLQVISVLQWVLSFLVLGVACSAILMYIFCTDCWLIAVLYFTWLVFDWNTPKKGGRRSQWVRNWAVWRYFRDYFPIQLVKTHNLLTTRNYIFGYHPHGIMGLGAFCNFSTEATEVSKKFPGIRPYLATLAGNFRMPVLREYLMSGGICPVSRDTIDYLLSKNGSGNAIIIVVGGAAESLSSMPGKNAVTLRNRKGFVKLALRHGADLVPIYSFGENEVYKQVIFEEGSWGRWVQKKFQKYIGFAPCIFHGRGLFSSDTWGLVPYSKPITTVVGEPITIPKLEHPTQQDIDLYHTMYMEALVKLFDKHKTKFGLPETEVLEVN

IC50 [1]: 0.132 µM | hepatocyte CLint at 1 µM [2]: < 2 µL/min/1e6 cells | IC50 [3]: > 30 µM | IC50 [4]: 0.06 µM | fraction unbound [5]: 0.047 | hepatocyte CLint at 1 µM [6]: < 2 µL/min/1e6 cells | hepatocyte CLint at 1 µM [7]: 5.5 µL/min/1e6 cells | IC50 [8]: > 30 µM | IC50 [9]: 0.15 µM | IC50 [10]: 0.09 µM | IC50 [11]: 5.5 µM | IC50 [12]: > 300 µM
Structure (SMILES): Cc1nc(C)c(-c2ccc(C3CCC(CC(=O)O)CC3)cc2)nc1C(N)=O (configuration not stated) [AZD-7687]
